Reference: patent US11957687B2 (REGENERON PHARMACEUTICALS, INC., priority 2019, dated 2024)

Tests used:
Assay type in all cases: biochemical
HSD17B1 = HSD17B1 (Homo sapiens (Human), UniProt P14061); test: HSD17B1 enzymatic blocking assay; details: 25 μM Estradiol, 500 μM NAD; read-out: Inhibition of HSD17B1 IC50
Experimental: To screen compounds of the disclosure for their ability to block HSD17B1 function, an enzymatic blocking assay was performed. For the assay, HSD17B1 activity was measured by detecting NADH formation from oxidation of Estradiol using a NADH Glo luminescence assay (Promega, #Cat. No. G9062). […] Compounds were incubated with the enzyme for 30 minutes at room temperature. […] DMSO at a concentration of 0.5% was used as a negative control and a ‘no substrate’ control was used a positive control in the assay. Detection reagent was then added as per manufacturer's instructions, and the plate was subsequently incubated in the dark for 1 hour at room temperature, NADH generated was detected in the luminescence mode on the Envision Perkin Elmer plate reader. The IC50 values were determined using Dotmatics analysis software.

HSD17B13 = HSD17B13 (Homo sapiens (Human), UniProt Q7Z5P4); test: HSD17B13 enzymatic inhibition assay (150 nM or 50 nM HSD17B13); details: 50 nM HSD17B13; read-out: Inhibition of 50 nM of HSD17B13 IC50
Sequence of HSD17B13 (Q7Z5P4 other isoform, or with tags, fused parts or gaps): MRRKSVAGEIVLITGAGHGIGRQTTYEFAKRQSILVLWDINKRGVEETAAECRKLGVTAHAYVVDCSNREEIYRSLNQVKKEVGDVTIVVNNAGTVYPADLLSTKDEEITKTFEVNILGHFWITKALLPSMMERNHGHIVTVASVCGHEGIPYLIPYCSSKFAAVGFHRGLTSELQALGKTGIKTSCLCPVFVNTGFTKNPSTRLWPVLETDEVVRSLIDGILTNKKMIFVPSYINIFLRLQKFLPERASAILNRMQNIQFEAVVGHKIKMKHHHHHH

HSD17B2 = HSD17B2 (Homo sapiens (Human), UniProt P37059); test: HSD17B2 enzymatic blocking assay; details: 1.8 μM Estradiol, 650 μM NAD; read-out: Inhibition of HSD17B2 IC50
Sequence of HSD17B2 (P37059 other isoform, or with tags, fused parts or gaps): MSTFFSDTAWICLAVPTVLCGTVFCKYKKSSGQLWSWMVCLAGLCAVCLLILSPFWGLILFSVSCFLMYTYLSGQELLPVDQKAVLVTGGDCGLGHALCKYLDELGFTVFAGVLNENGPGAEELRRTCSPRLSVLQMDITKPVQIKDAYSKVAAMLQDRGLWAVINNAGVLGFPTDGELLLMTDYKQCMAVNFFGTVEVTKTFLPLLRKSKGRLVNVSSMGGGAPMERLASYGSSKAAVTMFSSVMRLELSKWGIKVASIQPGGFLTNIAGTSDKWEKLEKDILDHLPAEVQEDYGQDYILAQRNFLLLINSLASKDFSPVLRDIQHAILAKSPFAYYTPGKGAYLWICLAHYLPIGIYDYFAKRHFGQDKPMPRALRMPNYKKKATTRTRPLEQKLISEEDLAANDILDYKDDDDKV
Experimental: To screen compounds of the disclosure for their ability to block HSD17B2 function, an enzymatic blocking assay was performed. For the assay, HSD17B2 activity was measured by detecting NADH formation from oxidation of Estradiol using a NADH Glo luminescence assay (Promega, #Cat. No. G9062). Compounds of the disclosure were evaluated in a dose titration assay where the compounds were titrated at 10-point dose curve using an Echo-555 liquid handling dispenser. HSD17B2 (SEQ ID NO: 3, expressed in mammalian cells) was added at a final concentration of 2 ng/μL in a buffer containing 50 mM Tris-HCl, pH 7.5, Pluronic F-127 0.05%, Tween20 0.01%, BSA 0.01% into a low volume white 384-well assay plate. Compounds were incubated with the enzyme for 15 min at 20° C. The assay reaction was then initiated by addition of 1.8 μM Estradiol substrate (Sigma, catalog #E2758-250MG, CAS: 50-28-2) and 650 μM NAD co-factor, and the reaction mixture was incubated for 45 min at 20° C. DMSO at a concentration of 0.5% was used as a negative control and a ‘no substrate’ control was used a positive control in the assay. Detection reagent was then added as per manufacturer's instructions, and the plate was subsequently incubated in the dark for 1 hour at room temperature, NADH generated was detected in the luminescence mode on the Envision Perkin Elmer plate reader. The IC50 values were determined using Dotmatics analysis software.

Sequence of HSD17B1 (P14061 other isoform, or with tags, fused parts or gaps): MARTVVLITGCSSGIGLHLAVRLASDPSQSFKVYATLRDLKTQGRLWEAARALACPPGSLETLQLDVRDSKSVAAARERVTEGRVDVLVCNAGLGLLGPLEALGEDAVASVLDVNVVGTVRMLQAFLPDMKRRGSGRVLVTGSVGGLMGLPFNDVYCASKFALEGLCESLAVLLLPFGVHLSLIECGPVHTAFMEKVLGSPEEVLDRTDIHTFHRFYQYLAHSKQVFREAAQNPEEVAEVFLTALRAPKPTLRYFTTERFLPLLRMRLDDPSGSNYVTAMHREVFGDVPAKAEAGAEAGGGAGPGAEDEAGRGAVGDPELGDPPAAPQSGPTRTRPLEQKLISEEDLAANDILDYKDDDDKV

Compound	IC50 (HSD17B1)	IC50 (HSD17B13)	IC50 (HSD17B2)
Cc1ccc2c(c1)Oc1cc(C)ccc1C2NC(=O)c1cc(-c2ccccc2)c(C(F)(F)F)[nH]c1=O [Compound 177, N-(3,6-dimethyl-9H-xanthen-9-yl)-2-oxo-5-phenyl-6-(trifluoromethyl)-1,2-dihydropyridine-3-carboxamide]	4.21 µM	0.04 µM	14.6 µM
CCCc1cc(C(=O)NC2c3ccc(Cl)cc3Oc3cc(Cl)ccc32)c(=O)[nH]c1C(F)(F)F [Compound 178, N-(3,6-dichloro-9H-xanthen-9-yl)-2-oxo-5-propyl-6-(trifluoromethyl)-1,2-dihydropyridine-3-carboxamide]	28.7 µM	0.06 µM	64 µM
C=Cc1cc(C(=O)NC2c3ccc(C)cc3Oc3cc(C)ccc32)c(=O)[nH]c1C(F)(F)F [Compound 182, N-(3,6-dimethyl-9H-xanthen-9-yl)-2-oxo-6-(trifluoromethyl)-5-vinyl-1,2-dihydropyridine-3-carboxamide]	5.16 µM	0.02 µM	10.3 µM
Cc1ccc2c(c1)Oc1cc(C)ccc1C2NC(=O)c1cc(C2=CCCCC2)c(C(F)(F)F)[nH]c1=O [Compound 183, 5-(cyclohex-1-en-1-yl)-N-(3,6-dimethyl-9H-xanthen-9-yl)-2-oxo-6-(trifluoromethyl)-1,2-dihydropyridine-3-carboxamide]	4.55 µM	0.03 µM	9.61 µM
Cc1ccc2c(c1)Oc1cc(C)ccc1C2NC(=O)c1cnc(C(F)(F)F)[nH]c1=O [Compound 194, N-(3,6-dimethyl-9H-xanthen-9-yl)-6-oxo-2-(trifluoromethyl)-1,6-dihydropyrimidine-5-carboxamide]	19.2 µM	0.09 µM	17.4 µM
CCCc1cc(CCC)cc(NC(=O)c2ccc(C(F)(F)F)[nH]c2=O)c1 [Compound 271, N-(3,5-dipropylphenyl)-2-oxo-6-(trifluoromethyl)-1,2-dihydropyridine-3-carboxamide]	27.9 µM	2.11 µM	> 100 µM
COc1ccc2c(c1)Sc1cc(OC)ccc1C2NC(=O)c1ccc(C(F)F)[nH]c1=O [Compound 274, 6-(difluoromethyl)-N-(3,6-dimethoxy-9H-thioxanthen-9-yl)-2-oxo-1,2-dihydropyridine-3-carboxamide]	8.39 µM	0.27 µM	9.16 µM
Cc1ccc2c(c1)Sc1cc(C)ccc1C2NC(=O)c1ccc(C(F)F)[nH]c1=O [Compound 282, 6-(difluoromethyl)-N-(3,6-dimethyl-9H-thioxanthen-9-yl)-2-oxo-1,2-dihydropyridine-3-carboxamide]	> 30 µM	0.14 µM	> 100 µM
CCC1CCC(NC(=O)c2ccc(C(F)(F)F)[nH]c2=O)c2ccc(C)cc21 (stereo not drawn) [Compound 300, N-(4-ethyl-6-methyl-1,2,3,4-tetrahydronaphthalen-1-yl)-2-oxo-6-(trifluoromethyl)-1,2-dihydropyridine-3-carboxamide]	18 µM	0.14 µM	10.2 µM
Cc1ccc2c(c1)C(C)CCC2NC(=O)c1ccc(C(F)(F)F)[nH]c1=O (stereo not drawn) [Compound 302, N-(4,6-dimethyl-1,2,3,4-tetrahydronaphthalen-1-yl)-2-oxo-6-(trifluoromethyl)-1,2-dihydropyridine-3-carboxamide]	> 30 µM	0.16 µM	23 µM
CCCc1sc2cc(C)ccc2c1NC(=O)c1ccc(C(F)(F)F)[nH]c1=O [Compound 308, N-(6-methyl-2-propylbenzo[b]thiophen-3-yl)-2-oxo-6-(trifluoromethyl)-1,2-dihydropyridine-3-carboxamide]	15.4 µM	0.07 µM	16.9 µM
CCc1sc2cc(C)ccc2c1NC(=O)c1ccc(C(F)(F)F)[nH]c1=O [Compound 309, N-(2-ethyl-6-methylbenzo[b]thiophen-3-yl)-2-oxo-6-(trifluoromethyl)-1,2-dihydropyridine-3-carboxamide]	14.3 µM	0.08 µM	22.6 µM
COc1ccc2c(c1)Sc1cccnc1C2NC(=O)c1ccc(C(F)(F)F)[nH]c1=O (stereo not drawn) [Compound 321, N-(7-methoxy-10H-thiochromeno[3,2-b]pyridin-10-yl)-2-oxo-6-(trifluoromethyl)-1,2-dihydropyridine-3-carboxamide]	> 30 µM	0.22 µM	8.32 µM
COc1ccc2c(c1)Sc1cnccc1C2NC(=O)c1ccc(C(F)(F)F)[nH]c1=O (stereo not drawn) [Compound 323, N-(8-methoxy-5H-thiochromeno[2,3-c]pyridin-5-yl)-2-oxo-6-(trifluoromethyl)-1,2-dihydropyridine-3-carboxamide]	> 30 µM	0.22 µM	35.5 µM
Cc1cnc2c(c1)Oc1ccccc1C2NC(=O)c1ccc(C(F)(F)F)[nH]c1=O (stereo not drawn) [Compound 324, N-(3-methyl-10H-chromeno[3,2-b]pyridin-10-yl)-2-oxo-6-(trifluoromethyl)-1,2-dihydropyridine-3-carboxamide]	> 30 µM	0.04 µM	56.4 µM
Cc1ccc2c(c1)Oc1cnccc1C2NC(=O)c1ccc(C(F)(F)F)[nH]c1=O (stereo not drawn) [Compound 328, N-(8-methyl-5H-chromeno[2,3-c]pyridin-5-yl)-2-oxo-6-(trifluoromethyl)-1,2-dihydropyridine-3-carboxamide]	4.16 µM	0.11 µM	> 100 µM
Cc1ccc2c(c1)Oc1ccncc1C2NC(=O)c1ccc(C(F)(F)F)[nH]c1=O (stereo not drawn) [Compound 330, N-(7-methyl-10H-chromeno[3,2-c]pyridin-10-yl)-2-oxo-6-(trifluoromethyl)-1,2-dihydropyridine-3-carboxamide]	> 30 µM	0.08 µM	22.1 µM
CCC[C@@H]1Oc2ccc(C)cc2[C@@H]1NC(=O)c1ccc(C(F)(F)F)[nH]c1=O [Compound 354, N-((2S,3S)-5-methyl-2-propyl-2,3-dihydrobenzofuran-3-yl)-2-oxo-6-(trifluoromethyl)-1,2-dihydropyridine-3-carboxamide]	> 30 µM	0.51 µM	29.3 µM
CCC1Oc2ccc(C)cc2C1NC(=O)c1ccc(C(F)(F)F)[nH]c1=O (stereo not drawn) [Compound 355, N-(2-ethyl-5-methyl-2,3-dihydrobenzofuran-3-yl)-2-oxo-6-(trifluoromethyl)-1,2-dihydropyridine-3-carboxamide]	> 30 µM	0.52 µM	37.6 µM
Cc1ccc2c(c1)OC(C)CC2NC(=O)c1ccc(C(F)(F)F)[nH]c1=O (stereo not drawn) [Compound 405, N-(2,7-dimethylchroman-4-yl)-2-oxo-6-(trifluoromethyl)-1,2-dihydropyridine-3-carboxamide]	> 30 µM	0.16 µM	> 100 µM
CCCC1CC(NC(=O)c2ccc(C(F)(F)F)[nH]c2=O)c2ccc(C)cc2O1 (stereo not drawn) [Compound 406, N-(7-methyl-2-propylchroman-4-yl)-2-oxo-6-(trifluoromethyl)-1,2-dihydropyridine-3-carboxamide]	28.8 µM	0.23 µM	54 µM
CCC1CC(NC(=O)c2ccc(C(F)(F)F)[nH]c2=O)c2ccc(C)cc2O1 (stereo not drawn) [Compound 407, N-(2-ethyl-7-methylchroman-4-yl)-2-oxo-6-(trifluoromethyl)-1,2-dihydropyridine-3-carboxamide]	12.5 µM	0.16 µM	69.2 µM
Cc1ccc2c(c1)OC1CCCCC1C2NC(=O)c1ccc(C(F)(F)F)[nH]c1=O (stereo not drawn) [Compound 409, N-(6-methyl-2,3,4,4a,9,9a-hexahydro-1H-xanthen-9-yl)-2-oxo-6-(trifluoromethyl)-1,2-dihydropyridine-3-carboxamide]	> 30 µM	0.04 µM	29.7 µM
O=C(NC1c2ccccc2-c2ccc(C(F)(F)F)cc21)c1ccc(C(F)(F)F)[nH]c1=O (stereo not drawn) [Compound 414, 2-oxo-6-(trifluoromethyl)-N-(2-(trifluoromethyl)-9H-fluoren-9-yl)-1,2-dihydropyridine-3-carboxamide]	8.59 µM	0.25 µM	17.5 µM
COc1ccc2c(c1)C(NC(=O)c1ccc(C(F)(F)F)[nH]c1=O)c1ccccc1-2 (stereo not drawn) [Compound 416, N-(2-methoxy-9H-fluoren-9-yl)-2-oxo-6-(trifluoromethyl)-1,2-dihydropyridine-3-carboxamide]	20 µM	0.07 µM	14.8 µM
